Experimental data published in patent US10201532B2, “Compounds and their use” (ALLECRA THERAPEUTICS GMBH, priority 2010, dated 2019).

Assays:
[1] = biological target: crude KPC-3 enzyme extract (UniProt Q9F663, H272Y, species not given); assay: β-Lactamase inhibitory assay with CENTA substrate; assay type: biochemical; conditions: also headed KPC2
Source text: (§1) The Compound-1 was subjected to β-lactamase inhibitory assay to determine IC50 and to compare that with the comparator BLI agents as described elsewhere (Bebrone et. al., Antimicrob. Agents. Chemother, 2001, 45(6): 1868-1871; Jamieson et. al, Antimicrob. Agents. Chemother, 2003, 47(5): 1652-1657). Briefly, enzyme extracts from KPC-2 producing and KPC-3 expressing bacterial gram negative strains were used to study the β-lactamase inhibitory activity and determination of IC50 using CENTA as the substrate for β-lactamase.

[2] = biological target: T1, crude KPC-2 enzyme extract (Klebsiella pneumoniae, UniProt Q9F663); assay: β-Lactamase inhibitory assay with CENTA substrate; assay type: biochemical
T1 construct: enzyme extracts from KPC-2 producing and KPC-3 expressing bacterial gram negative strains were used; endogenous in cells; host or cells: KPC-2 producing gram-negative strain
T1 sequence (Q9F663 25-293 limits assumed): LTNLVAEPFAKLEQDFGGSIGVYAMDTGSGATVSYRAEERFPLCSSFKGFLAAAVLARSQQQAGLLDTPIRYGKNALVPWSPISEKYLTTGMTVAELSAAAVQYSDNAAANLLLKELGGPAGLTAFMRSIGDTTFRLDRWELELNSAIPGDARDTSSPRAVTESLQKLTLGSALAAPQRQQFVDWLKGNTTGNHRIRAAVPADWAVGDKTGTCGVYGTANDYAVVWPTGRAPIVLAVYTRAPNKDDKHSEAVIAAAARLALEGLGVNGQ
Source text: as §1

[3] = system: KPC-3 expressing E. coli (J53 R6206); assay: Synergistic broth micro-dilution MIC (checkerboard); assay type: cell-based, Escherichia coli
[4] = system: KPC-2 producing K. pneumoniae (ATCC BAA-1705); assay: as above; assay type: cell-based, Klebsiella pneumoniae; conditions: for MIC of Cefepime in combination with BLI / MIC of Cefotaxime in combination with BLI / MIC of Ceftazidime in combination with BLI / MIC of Ceftobiprole in combination with BLI / MIC of Imipenem in combination with BLI / MIC of Meropenem in combination with BLI / MIC of Aztreonam in combination with BLI / MIC of Ertapenem in combination with BLI / MIC of Faropenem in combination with BLI: ATCC BAA-1705

## CC1(C)[C@H](C(=O)O)N2C(=O)C[C@H]2S1(=O)=O [Sulbactam]
[1]
  IC50: 235 µM
[2]
  IC50: 1400 µM
[3]; BLI at 2 μg/mL
  MIC of Cefepime in combination with BLI: 16 µg/mL
  MIC of Cefotaxime in combination with BLI: >32 µg/mL
  MIC of Ceftazidime in combination with BLI: 32 µg/mL
  MIC of Ceftobiprole in combination with BLI: 32 µg/mL
  MIC of Imipenem in combination with BLI: 4 µg/mL
  MIC of Meropenem in combination with BLI: 2 µg/mL
[3]; BLI at 4 μg/mL
  MIC of Cefepime in combination with BLI: 16 µg/mL
  MIC of Cefotaxime in combination with BLI: 16 µg/mL
  MIC of Ceftazidime in combination with BLI: 32 µg/mL
  MIC of Ceftobiprole in combination with BLI: 32 µg/mL
  MIC of Imipenem in combination with BLI: 2 µg/mL
  MIC of Meropenem in combination with BLI: 1 µg/mL
[3]; BLI at 8 μg/mL
  MIC of Cefepime in combination with BLI: 8 µg/mL
  MIC of Cefotaxime in combination with BLI: 8 µg/mL
  MIC of Ceftazidime in combination with BLI: 32 µg/mL
  MIC of Ceftobiprole in combination with BLI: 16 µg/mL
  MIC of Imipenem in combination with BLI: 2 µg/mL
  MIC of Meropenem in combination with BLI: 1 µg/mL
[3]; Escherichia coli, read-out: MIC of BLI alone, BLI alone
  MIC: > 8 µg/mL
[4]; BLI at 2 μg/mL
  MIC of Cefepime in combination with BLI: >64 µg/mL
  MIC of Cefotaxime in combination with BLI: >64 µg/mL
  MIC of Ceftazidime in combination with BLI: >64 µg/mL
  MIC of Ceftobiprole in combination with BLI: >64 µg/mL
  MIC of Imipenem in combination with BLI: 16 to 32 µg/mL
  MIC of Meropenem in combination with BLI: 32 µg/mL
[4]; BLI at 4 μg/mL
  MIC of Aztreonam in combination with BLI: >64 µg/mL
  MIC of Cefepime in combination with BLI: ≥64 µg/mL
  MIC of Cefotaxime in combination with BLI: >64 µg/mL
  MIC of Ceftazidime in combination with BLI: >64 µg/mL
  MIC of Ceftobiprole in combination with BLI: >64 µg/mL
  MIC of Ertapenem in combination with BLI: >64 µg/mL
  MIC of Faropenem in combination with BLI: >64 µg/mL
  MIC of Imipenem in combination with BLI: 16 to 32 µg/mL
  MIC of Meropenem in combination with BLI: 32 µg/mL
[4]; BLI at 8 μg/mL
  MIC of Cefepime in combination with BLI: 64 µg/mL
  MIC of Cefotaxime in combination with BLI: 64 µg/mL
  MIC of Ceftazidime in combination with BLI: >64 µg/mL
  MIC of Ceftobiprole in combination with BLI: >64 µg/mL
  MIC of Ertapenem in combination with BLI: >64 µg/mL
  MIC of Faropenem in combination with BLI: >64 µg/mL
  MIC of Imipenem in combination with BLI: 16 µg/mL
  MIC of Meropenem in combination with BLI: 32 µg/mL
[4]; BLI at 16 μg/mL
  MIC of Aztreonam in combination with BLI: >64 µg/mL
  MIC of Cefepime in combination with BLI: 64 µg/mL
  MIC of Cefotaxime in combination with BLI: 32 µg/mL
  MIC of Ceftazidime in combination with BLI: >64 µg/mL
  MIC of Ceftobiprole in combination with BLI: >64 µg/mL
  MIC of Ertapenem in combination with BLI: >64 µg/mL
  MIC of Faropenem in combination with BLI: >64 µg/mL
  MIC of Imipenem in combination with BLI: 8 µg/mL
  MIC of Meropenem in combination with BLI: 32 µg/mL
[4]; BLI at 64 μg/mL
  MIC of Aztreonam in combination with BLI: >64 µg/mL
  MIC of Cefepime in combination with BLI: 64 µg/mL
  MIC of Cefotaxime in combination with BLI: 32 µg/mL
  MIC of Ceftazidime in combination with BLI: 64 µg/mL
  MIC of Ceftobiprole in combination with BLI: >64 µg/mL
  MIC of Ertapenem in combination with BLI: 64 µg/mL
  MIC of Faropenem in combination with BLI: >64 µg/mL
  MIC of Imipenem in combination with BLI: 8 µg/mL
  MIC of Meropenem in combination with BLI: 16 µg/mL
[4]; Klebsiella pneumoniae, ATCCBAA1705, read-out: MIC of BLI alone
  MIC: > 64 µg/mL
